Measured values taken from ChEMBL document CHEMBL1201862, “PubChem BioAssay data set” (2004).
The source made the active and inactive calls.

Key:
Assay type in all cases: functional
[1] = biological target: T1, Sentrin-specific protease 6 (Homo sapiens, UniProt Q9GZR1);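 note: Luminescence-based dose-response confirmatory assay of SENP6 inhibition, following up an ultra-high-throughput screen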
T1 sequence (Q9GZR1 whole entry): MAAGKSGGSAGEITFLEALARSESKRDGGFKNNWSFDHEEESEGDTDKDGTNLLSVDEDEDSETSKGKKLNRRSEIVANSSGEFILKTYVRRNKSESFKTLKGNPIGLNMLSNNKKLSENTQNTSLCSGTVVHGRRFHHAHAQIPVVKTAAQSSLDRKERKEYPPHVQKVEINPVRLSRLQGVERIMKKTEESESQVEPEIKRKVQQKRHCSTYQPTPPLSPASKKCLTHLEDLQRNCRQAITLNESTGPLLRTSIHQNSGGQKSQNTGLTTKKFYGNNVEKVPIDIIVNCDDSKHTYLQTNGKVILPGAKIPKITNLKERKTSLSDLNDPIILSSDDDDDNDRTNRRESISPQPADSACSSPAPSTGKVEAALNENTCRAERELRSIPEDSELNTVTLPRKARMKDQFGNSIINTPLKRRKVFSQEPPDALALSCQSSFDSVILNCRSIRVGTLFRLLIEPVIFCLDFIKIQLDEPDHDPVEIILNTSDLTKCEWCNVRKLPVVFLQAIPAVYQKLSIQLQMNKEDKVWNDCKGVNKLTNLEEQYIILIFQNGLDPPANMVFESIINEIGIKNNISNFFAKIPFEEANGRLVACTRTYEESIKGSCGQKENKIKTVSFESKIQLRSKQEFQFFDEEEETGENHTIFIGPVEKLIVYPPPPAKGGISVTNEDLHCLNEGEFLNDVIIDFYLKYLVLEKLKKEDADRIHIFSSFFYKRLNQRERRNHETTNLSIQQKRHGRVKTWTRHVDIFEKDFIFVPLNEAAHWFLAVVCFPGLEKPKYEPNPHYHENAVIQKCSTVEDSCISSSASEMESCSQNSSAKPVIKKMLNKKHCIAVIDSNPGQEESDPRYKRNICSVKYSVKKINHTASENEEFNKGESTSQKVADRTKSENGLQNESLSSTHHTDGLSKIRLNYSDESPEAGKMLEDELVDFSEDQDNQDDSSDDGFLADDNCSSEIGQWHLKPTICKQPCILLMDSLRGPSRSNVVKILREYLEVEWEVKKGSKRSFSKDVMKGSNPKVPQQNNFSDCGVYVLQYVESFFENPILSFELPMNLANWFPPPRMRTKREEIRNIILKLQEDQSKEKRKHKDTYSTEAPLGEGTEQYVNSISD

[2] = Counterscreen for antagonists of the orexin 1 receptor (OX1R; HCRTR1): Fluorescence-based cell-based high throughput dose response assay to identify antagonists of the parental CHO cell line. [Related pubchem assays (depositor defined):AID434989, AID435008, AID463079, AID485270, AID492963, AID492964, AID492965, AID493232, AID504699, AID504701]
Orexin receptor type 2 = biological target: T2, Orexin receptor type 2 (Homo sapiens, UniProt O43614); test: Counterscreen assay for antagonists of the orexin 1 receptor (OX1R; HCRTR1): Fluorescence-based cell-based dose response assay for antagonists of the orexin 2 receptor (OX2R; HCRTR2), run by assay provider.
T2 sequence (O43614 whole entry): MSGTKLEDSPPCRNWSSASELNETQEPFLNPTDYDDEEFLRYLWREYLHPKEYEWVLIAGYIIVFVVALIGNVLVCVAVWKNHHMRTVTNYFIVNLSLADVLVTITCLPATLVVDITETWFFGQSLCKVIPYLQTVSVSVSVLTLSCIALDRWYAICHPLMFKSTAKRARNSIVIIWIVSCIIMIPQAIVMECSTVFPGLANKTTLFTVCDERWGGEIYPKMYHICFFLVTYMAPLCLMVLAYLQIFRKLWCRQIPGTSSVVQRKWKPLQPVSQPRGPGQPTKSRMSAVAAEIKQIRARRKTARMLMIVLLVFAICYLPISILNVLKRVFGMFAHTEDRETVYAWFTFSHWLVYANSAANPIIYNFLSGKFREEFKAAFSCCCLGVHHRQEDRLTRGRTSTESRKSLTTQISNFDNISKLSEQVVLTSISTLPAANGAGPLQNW

[3] = biological target: Tyrosine-protein kinase ABL1 (Homo sapiens, UniProt P00519)
[4] = biological target: Calcium/calmodulin-dependent protein kinase type II subunit alpha (Homo sapiens, UniProt Q9UQM7); test: Navigating the Kinome. Panel member name: CAMK2A
[5] = biological target: Insulin-like growth factor 1 receptor (Homo sapiens, UniProt P08069); test: Navigating the Kinome. Panel member name: IGF1R
[6] = biological target: Proto-oncogene tyrosine-protein kinase receptor Ret (Homo sapiens, UniProt P07949);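 note: measured within a kinome-wide profiling panel, RET as the panel member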
[7] = biological target: Fibroblast growth factor receptor 1 (Homo sapiens, UniProt P11362)
[8] = biological target: Tyrosine-protein kinase Fyn (Homo sapiens, UniProt P06241)
[9] = biological target: Leucine-rich repeat serine/threonine-protein kinase 2 (Homo sapiens, UniProt Q5S007);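 note: value from a broad kinome-wide panel profiling study in which LRRK2 was one of the kinases tested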
[10] = biological target: Tyrosine-protein kinase receptor TYRO3 (Homo sapiens, UniProt Q06418);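 note: TYRO3 value obtained as one member of a kinome-wide profiling panel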
[11] = biological target: 5'-AMP-activated protein kinase catalytic subunit alpha-1 (Homo sapiens, UniProt Q13131)
[12] = biological target: Dual specificity mitogen-activated protein kinase kinase 1 (Homo sapiens, UniProt Q02750); test: Navigating the Kinome. Panel member name: MAP2K1
[13] = biological target: ALK tyrosine kinase receptor (Homo sapiens, UniProt Q9UM73);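 note: ALK tested as one member of a kinase panel screen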
[14] = biological target: Glycogen synthase kinase-3 beta (Homo sapiens, UniProt P49841);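 note: value comes from a broad kinome profiling panel, with GSK3B as the panel member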
[15] = biological target: Cyclin-dependent kinase 9 (Homo sapiens, UniProt P50750);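 note: value from the CDK9 entry of a kinome-spanning kinase panel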
[16] = biological target: cAMP-dependent protein kinase catalytic subunit PRKX (Homo sapiens, UniProt P51817)
Activin receptor type-1 = Activin receptor type-1 (Homo sapiens, UniProt Q04771); test: Navigating the Kinome. Panel member name: ACVR1

Chain of Fibroblast growth factor receptor 1 (P11362 whole entry): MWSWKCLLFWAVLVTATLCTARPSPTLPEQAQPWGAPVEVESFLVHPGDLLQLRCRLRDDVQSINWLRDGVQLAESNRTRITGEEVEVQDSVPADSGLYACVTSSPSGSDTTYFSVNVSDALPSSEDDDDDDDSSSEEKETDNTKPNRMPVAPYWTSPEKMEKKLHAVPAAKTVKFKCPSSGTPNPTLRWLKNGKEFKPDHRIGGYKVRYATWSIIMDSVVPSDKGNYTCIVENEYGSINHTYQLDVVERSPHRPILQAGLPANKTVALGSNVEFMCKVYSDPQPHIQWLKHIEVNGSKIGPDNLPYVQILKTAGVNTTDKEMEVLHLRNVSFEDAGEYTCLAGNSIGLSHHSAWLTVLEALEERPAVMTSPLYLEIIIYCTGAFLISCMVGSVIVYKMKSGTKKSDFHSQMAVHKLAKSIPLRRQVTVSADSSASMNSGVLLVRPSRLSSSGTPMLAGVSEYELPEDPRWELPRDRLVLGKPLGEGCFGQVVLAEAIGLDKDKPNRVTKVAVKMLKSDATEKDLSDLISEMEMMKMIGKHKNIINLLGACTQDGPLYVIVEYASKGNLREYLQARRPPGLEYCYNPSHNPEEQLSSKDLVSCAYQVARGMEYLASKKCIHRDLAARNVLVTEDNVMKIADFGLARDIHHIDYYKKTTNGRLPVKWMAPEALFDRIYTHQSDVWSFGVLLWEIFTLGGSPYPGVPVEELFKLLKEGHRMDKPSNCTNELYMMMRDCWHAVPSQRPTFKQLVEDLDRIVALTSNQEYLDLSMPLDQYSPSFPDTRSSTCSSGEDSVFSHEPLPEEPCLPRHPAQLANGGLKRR
Chain of Leucine-rich repeat serine/threonine-protein kinase 2 (Q5S007 whole entry): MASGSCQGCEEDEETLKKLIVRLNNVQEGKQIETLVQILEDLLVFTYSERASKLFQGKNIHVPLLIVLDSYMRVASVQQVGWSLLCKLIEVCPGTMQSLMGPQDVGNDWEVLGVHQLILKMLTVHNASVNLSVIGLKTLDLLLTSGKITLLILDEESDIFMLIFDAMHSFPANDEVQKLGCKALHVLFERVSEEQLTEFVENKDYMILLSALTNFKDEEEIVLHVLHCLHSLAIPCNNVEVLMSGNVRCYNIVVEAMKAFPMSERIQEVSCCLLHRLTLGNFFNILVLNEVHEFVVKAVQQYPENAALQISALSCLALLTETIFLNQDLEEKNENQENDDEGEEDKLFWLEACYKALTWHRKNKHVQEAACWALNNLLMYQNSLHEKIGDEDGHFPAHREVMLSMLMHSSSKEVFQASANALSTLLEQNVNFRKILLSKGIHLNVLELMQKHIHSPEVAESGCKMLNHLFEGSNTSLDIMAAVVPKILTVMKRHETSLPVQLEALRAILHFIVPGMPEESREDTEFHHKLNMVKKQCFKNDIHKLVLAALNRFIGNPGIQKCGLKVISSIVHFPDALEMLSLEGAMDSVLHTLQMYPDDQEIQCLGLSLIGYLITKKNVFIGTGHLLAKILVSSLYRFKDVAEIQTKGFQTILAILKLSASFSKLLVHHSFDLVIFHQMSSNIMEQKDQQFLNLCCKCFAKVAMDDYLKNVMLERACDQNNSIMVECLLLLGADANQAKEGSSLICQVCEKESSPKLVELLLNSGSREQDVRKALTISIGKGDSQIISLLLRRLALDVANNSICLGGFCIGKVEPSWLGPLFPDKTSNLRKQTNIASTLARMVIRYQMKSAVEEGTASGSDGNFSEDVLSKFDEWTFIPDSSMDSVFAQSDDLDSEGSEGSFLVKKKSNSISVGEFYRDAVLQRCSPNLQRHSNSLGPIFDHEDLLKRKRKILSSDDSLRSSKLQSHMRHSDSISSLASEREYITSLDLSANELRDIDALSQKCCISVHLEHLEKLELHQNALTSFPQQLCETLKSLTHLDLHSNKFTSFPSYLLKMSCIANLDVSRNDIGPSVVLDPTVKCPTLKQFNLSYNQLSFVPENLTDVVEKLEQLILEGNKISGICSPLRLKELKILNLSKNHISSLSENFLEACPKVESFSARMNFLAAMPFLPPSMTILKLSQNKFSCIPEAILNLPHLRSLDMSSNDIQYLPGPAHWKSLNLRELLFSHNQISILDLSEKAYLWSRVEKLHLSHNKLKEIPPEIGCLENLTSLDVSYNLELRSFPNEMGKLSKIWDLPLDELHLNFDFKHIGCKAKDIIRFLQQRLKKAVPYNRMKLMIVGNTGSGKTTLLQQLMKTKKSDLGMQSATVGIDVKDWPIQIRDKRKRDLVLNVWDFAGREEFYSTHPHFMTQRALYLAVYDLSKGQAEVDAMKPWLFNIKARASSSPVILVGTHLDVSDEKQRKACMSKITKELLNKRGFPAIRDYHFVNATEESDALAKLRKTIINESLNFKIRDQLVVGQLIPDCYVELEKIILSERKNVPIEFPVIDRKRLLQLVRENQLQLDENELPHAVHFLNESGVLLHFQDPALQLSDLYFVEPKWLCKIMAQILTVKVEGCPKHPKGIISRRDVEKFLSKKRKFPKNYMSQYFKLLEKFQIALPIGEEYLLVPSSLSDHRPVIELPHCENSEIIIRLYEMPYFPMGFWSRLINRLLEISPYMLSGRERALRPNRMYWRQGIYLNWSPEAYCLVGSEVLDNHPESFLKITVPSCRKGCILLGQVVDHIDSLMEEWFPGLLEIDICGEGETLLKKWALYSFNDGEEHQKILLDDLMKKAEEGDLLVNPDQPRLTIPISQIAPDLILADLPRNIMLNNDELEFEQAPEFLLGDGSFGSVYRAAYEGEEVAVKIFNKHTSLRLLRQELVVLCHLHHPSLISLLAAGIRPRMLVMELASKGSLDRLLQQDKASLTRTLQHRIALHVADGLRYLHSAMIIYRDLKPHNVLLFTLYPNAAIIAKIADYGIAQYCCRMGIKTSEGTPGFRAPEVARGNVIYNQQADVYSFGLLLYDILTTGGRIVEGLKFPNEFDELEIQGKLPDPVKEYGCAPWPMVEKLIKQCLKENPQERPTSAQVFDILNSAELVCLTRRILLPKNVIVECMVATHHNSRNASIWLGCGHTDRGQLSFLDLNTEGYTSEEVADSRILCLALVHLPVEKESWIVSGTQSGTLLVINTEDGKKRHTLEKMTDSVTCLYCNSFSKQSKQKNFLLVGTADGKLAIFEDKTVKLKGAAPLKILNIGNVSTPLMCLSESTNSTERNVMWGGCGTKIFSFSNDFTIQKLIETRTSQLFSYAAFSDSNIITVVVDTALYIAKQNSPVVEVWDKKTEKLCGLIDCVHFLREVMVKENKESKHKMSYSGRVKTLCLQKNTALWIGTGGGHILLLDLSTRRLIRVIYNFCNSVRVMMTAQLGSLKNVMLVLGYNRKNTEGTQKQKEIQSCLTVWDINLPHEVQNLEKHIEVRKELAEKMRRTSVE
Chain of Cyclin-dependent kinase 9 (P50750 whole entry): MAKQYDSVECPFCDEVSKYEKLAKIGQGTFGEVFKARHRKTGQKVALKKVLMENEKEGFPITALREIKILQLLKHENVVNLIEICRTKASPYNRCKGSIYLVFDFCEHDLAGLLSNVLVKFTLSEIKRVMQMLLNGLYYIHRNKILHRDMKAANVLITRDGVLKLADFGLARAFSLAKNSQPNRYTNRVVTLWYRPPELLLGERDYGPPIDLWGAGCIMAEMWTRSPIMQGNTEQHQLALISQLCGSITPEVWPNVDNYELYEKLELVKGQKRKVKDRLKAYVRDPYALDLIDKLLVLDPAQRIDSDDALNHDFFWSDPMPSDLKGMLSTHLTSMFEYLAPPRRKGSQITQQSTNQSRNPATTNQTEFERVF
Chain of Insulin-like growth factor 1 receptor (P08069 31-736 limits assumed): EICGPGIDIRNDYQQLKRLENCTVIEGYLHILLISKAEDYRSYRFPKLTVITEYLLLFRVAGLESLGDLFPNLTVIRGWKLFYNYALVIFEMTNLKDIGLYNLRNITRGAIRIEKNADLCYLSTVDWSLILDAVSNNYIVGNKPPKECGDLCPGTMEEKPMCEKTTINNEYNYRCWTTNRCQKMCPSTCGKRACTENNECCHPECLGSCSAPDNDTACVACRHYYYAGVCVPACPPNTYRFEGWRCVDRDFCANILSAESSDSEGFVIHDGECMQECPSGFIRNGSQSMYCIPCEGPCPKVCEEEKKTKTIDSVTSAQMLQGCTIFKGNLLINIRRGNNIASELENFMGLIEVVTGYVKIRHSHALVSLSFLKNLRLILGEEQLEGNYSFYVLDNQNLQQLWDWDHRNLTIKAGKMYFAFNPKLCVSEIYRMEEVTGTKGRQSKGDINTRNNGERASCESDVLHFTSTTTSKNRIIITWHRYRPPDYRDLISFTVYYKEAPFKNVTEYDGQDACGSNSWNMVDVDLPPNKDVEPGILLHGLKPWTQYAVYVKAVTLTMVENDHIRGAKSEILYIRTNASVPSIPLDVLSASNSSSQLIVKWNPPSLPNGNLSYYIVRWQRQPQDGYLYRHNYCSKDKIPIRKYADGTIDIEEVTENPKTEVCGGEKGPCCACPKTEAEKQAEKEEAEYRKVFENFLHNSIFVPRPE
Chain of Insulin-like growth factor 1 receptor (P08069 741-1367 limits assumed): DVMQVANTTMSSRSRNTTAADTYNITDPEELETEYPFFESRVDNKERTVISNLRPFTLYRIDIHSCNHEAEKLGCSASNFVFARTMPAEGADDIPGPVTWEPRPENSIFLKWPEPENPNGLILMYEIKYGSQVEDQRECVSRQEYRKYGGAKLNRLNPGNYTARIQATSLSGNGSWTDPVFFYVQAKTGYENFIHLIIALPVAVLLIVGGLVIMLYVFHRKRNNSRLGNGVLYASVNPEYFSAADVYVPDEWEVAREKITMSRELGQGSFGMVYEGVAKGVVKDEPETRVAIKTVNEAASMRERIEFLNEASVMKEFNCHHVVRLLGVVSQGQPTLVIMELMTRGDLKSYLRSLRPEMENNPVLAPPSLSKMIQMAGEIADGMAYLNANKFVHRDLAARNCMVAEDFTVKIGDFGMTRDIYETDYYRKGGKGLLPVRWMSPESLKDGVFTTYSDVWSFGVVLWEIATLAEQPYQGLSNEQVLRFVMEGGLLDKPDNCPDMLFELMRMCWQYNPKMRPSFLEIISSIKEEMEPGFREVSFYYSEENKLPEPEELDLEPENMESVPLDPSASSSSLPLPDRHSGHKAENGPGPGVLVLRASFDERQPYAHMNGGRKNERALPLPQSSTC

Structure (SMILES) | IC50 [1] | IC50 [2] | IC50 (Orexin receptor type 2) | Ki [3] | Ki [4] | Ki [5] | Ki [6] | Ki [7] | Ki [8] | Ki [9] | Ki [10] | Ki [11] | Ki [12] | Ki [13] | Ki [14] | Ki [15] | Ki [16] | Ki (Activin receptor type-1)
Cc1ccnc2ccc(-c3nc4ccccc4o3)cc12 | 3.65 µM (active) | > 49.8 µM (inactive) | > 88.8 µM (inactive) |  |  |  |  |  |  |  |  |  |  |  |  |  |  | 
O=C(NCCc1cccs1)N1CC=C(c2c[nH]c3ncccc23)CC1 |  |  |  | > 2.51 µM (inactive) | 3.98 µM (active) | > 2.51 µM (inactive) | > 3.16 µM (inactive) | > 3.98 µM (inactive) | > 6.31 µM (inactive) | 0.631 µM (active) | > 3.16 µM (inactive) | 2 µM (active) | 2.51 µM (active) | > 6.31 µM (inactive) | 3.16 µM (active) | 0.398 µM (active) | 0.158 µM (active) | 1.26 µM (active)
